In patent US10144952B2, “Stabilization and isolation of extracellular nucleic acids” (QIAGEN GmbH, priority 2013, dated 2018):
Structures can show the parent of a compound that is named as a salt. Where a SMILES comes first, the peptide text is derived from it. The star is where a group is joined. Cbz = O=C(OCc1ccccc1)*; CH2F = FC*

Tests used:
[1] = tested on: Bid-induced cyctochrome c release from HeLa cell mitochondria; conditions: at 5 μM; cited from earlier work
[2] = target: cathepsin L (Homo sapiens, UniProt P07711); conditions: cited from earlier work
Sequence of cathepsin L (P07711 114-333, species assumed): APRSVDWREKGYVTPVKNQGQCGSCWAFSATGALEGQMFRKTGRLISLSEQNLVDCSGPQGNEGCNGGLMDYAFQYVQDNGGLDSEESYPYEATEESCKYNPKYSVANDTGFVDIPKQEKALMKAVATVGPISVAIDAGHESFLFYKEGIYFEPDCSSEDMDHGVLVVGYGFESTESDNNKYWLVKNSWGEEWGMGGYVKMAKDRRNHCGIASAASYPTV

[3] = target: T1, calpain II (Homo sapiens, UniProt P17655); conditions: irreversible inhibitor; cited from earlier work
T1 sequence (P17655 1-700): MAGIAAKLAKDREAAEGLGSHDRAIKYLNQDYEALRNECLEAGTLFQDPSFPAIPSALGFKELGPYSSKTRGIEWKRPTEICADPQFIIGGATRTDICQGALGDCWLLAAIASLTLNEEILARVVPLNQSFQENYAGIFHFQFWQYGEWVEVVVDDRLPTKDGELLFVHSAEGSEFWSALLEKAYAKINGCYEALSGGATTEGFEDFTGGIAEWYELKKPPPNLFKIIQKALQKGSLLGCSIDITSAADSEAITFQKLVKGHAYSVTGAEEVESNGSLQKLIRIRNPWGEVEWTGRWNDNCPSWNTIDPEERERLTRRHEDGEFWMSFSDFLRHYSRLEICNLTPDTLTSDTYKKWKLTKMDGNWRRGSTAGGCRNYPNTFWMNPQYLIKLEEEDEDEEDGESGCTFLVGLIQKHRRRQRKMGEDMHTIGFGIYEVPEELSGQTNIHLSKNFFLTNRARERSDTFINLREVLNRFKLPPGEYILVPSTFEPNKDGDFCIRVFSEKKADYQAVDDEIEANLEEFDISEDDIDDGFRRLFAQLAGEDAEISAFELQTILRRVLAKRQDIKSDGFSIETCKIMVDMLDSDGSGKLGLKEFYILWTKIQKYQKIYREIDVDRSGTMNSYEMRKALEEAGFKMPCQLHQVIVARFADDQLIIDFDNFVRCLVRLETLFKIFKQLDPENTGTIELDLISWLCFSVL
T1 sequence (P04632 1-268 partner): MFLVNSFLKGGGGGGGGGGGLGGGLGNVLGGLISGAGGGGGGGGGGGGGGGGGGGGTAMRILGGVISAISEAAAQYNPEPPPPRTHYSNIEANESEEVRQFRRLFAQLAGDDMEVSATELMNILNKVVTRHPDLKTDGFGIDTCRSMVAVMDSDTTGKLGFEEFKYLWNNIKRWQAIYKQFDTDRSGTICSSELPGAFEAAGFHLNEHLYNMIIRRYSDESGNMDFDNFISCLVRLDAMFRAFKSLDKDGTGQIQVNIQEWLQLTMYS

[4] = tested on: transcriptional activation of COX-2; conditions: cited from earlier work
[5] = tested on: etoposide-induced cortical neuron death; conditions: cited from earlier work
[6] = cited from earlier work; for t1/2: buffer
[7] = tested on: cells; conditions: cited from earlier work
[8] = tested on: ladder-like pattern of genomic DNA fragments (apoptosis) in whole blood; assay: chip gel electrophoresis of circulating cell-free DNA; format: cell-based; conditions: 20 μM in whole blood; day 3 and day 7
Experimental: 1.3.1 Measurement of the blood cell stability/DNA release by the determination of DNA size distribution using a chip gel electrophoresis (2100 Bioanalyzer; Agilent Technologies; Inc., USA) according to manufacturer's instruction (see handbook Agilent DNA 7500 and DNA 12000 Kit Guide), but 1.5 μl instead of 1 μl sample were transferred to the wells.
Each tested caspase inhibitor was added to whole blood samples (20 μM end concentration in 10 ml blood; blood was collected into Vacutainer K2E Tubes; BD). The whole blood sample was processed as described in section 1 (plasma preparation and nucleic acid isolation).
The eluted circulating cell-free DNA was separated by size using chip gel electrophoresis (for details on the method see above). […] The DMSO control and the K2E blood (not treated according to the teachings of the present invention) show the same ladder-like pattern of bands. This pattern occurs in samples where apoptosis takes place. During apoptosis, endonucleases degrade genomic DNA at inter-nucleosomal linker regions and produce DNA fragments of circa 180 bp or multiples of 180 bp. Thus, apoptosis occurs in samples which show a clear ladder-like pattern. Furthermore, the strength (darkness) of the pattern is decisive. The darker the bands, the more genomic DNA was released from the cells and thus contaminates the extracellular nucleic acid population.

[9] = tested on: release of genomic DNA from white blood cells in whole blood (18S ribosomal DNA 66 bp and 500 bp amplicons); assay: 18S rDNA qPCR: increase of DNA in plasma of stored whole blood; format: cell-based, human; conditions: for increase of 18S DNA from day 0: Example 5, 2.1, 20 μM, within 7 days of storage at RT; for released DNA / stabilization capability: 3 and 6 days at room temperature
Description: Detection of ribosomal 18S DNA by quantitative real-time PCR, makes it possible to calculate the x-fold increase of DNA from day 0 to day 3 or 7 (calculation: division of day 3 (or 7) copies by day 0 copies).

[10] = tested on: myocardial infarct size during reperfusion; conditions: cited from earlier work

OC(CN1CCNCC1)Cn1c2ccc(Br)cc2c2cc(Br)ccc21 (racemic) [Bax Channel Blocker, (±)-1-(3,6-Dibromocarbazol-9-yl)-3-piperazin-1-yl-propan-2-ol,bis TFA]
inhibition of Bid-induced cytochrome c release [1]: cyctochrome c release from HeLa cell mitochondria (~80%

CC(C)C[C@H](NC(=O)OCc1ccccc1)C(=O)N[C@@H](CC(C)C)C(=O)N[C@@H](Cc1ccc(O)cc1)C(=O)CF [Calpain Inhibitor IV, Z-Leu-Leu-Tyr-CH2F] (HELM PEPTIDE1{[O=C(OCc1ccccc1)[*:2]].L.L.Y.[FC[*:1]]}$$$$V2.0)
k2 cathepsin L [2]: 680,000 M-1s-1).
k2 calpain II [3]: 28,900 M-1s-1). Also acts as an inhibitor of cathepsin L (k2 =

O=c1c(O)c(-c2ccc(O)cc2)oc2cc(O)cc(O)c12 [Kaempferol]
IC50 [4]: < 15 µM

O=[N+]([O-])c1ccc(-c2cn3c4c(sc3n2)CCCC4)cc1 [Pifithrin-α, p-Nitro, Cyclic]
fold higher potency than Pifithrin-α [5]: A cell-permeable p53 inhibitor that exhibits 10-fold higher potency
t1/2 [6]: 6 h
longer half-life than Pifithrin-α ([6]; neuron culture medium at 37° C.): 50%

N=c1sc2c(n1CC(=O)c1ccc([N+](=O)[O-])cc1)CCCC2 [Pifithrin-α, p-Nitro]
t1/2 [6]: biological systems (t1/2 = 8h in neuron culture medium at 37° C.).

CC(C)C(NC(=O)c1ccc2ccccc2n1)C(=O)NC(CC(=O)O)C(=O)COc1c(F)cccc1F (stereo not drawn) [Q-VD-OPh, Quinoline-Val-Asp-CH2-OPH]
toxicity to cells [7]: not toxic to cells even at extremely high concentrations
ladder-like pattern of cell-free DNA [8]: significantly reduced ladder-like patterns
increase of 18S DNA from day 0 [9]: reduced increase of DNA

COC(=O)C[C@H](NC(=O)[C@H](C)NC(=O)[C@@H](NC(=O)OCc1ccccc1)C(C)C)C(=O)CF [Z-Val-Ala-Asp(OMe)-FMK] (Cbz-Val-Ala-Asp(OMe)-CH2F)
ladder-like pattern of cell-free DNA [8]: reduced ladder-like pattern
increase of 18S DNA from day 0 [9]: more prominent on day 7

CCCC(N)=O [butanamide]
released DNA / stabilization capability ([9]; Example 2, 2.5, 3 or 3.5% butanamide or 5% DMAA with 1 μM caspase inhibitor and EDTA): at least comparable stabilization capabilities to DMAA
released DNA / stabilization capability ([9]; Example 3, butanamide 0.5-2% with DMPA 2.5-1%, 1 μM caspase inhibitor, EDTA): comparable stabilization capabilities
increase in 18S rDNA ([9]; Example 4, 0.5, 1.5 and 2.5% (w/v) butanamide with 1 μM caspase inhibitor and EDTA): significantly reduced increase in 18S rDNA

Ac-Leu-Glu-His-Asp-CMK (LEHD; HELM PEPTIDE1{[ac].L.E.H.D.[ClC[*:1]]}$$$$V2.0; SMILES CC(=O)N[C@@H](CC(C)C)C(=O)N[C@@H](CCC(=O)O)C(=O)N[C@@H](Cc1c[nH]cn1)C(=O)N[C@@H](CC(=O)O)C(=O)CCl) [Caspase-9 Inhibitor III]
concentration reported to reduce myocardial infarct size [10]: myocardial infarct size during reperfusion (~70 nM).
